# “Also recorded” adds a separate entry of the source. Like-named read-outs stand apart in the source and are kept apart here.
# B1: adiponectin: recombinant murine adiponectin (GenScript); protein hormone and adipokine (protein, UniProt Q60994 18-247, looked up)
# Adiponectin: EDDVTTTEELAPALVPPPKGTCAGWMAGIPGHPGHNGTPGRDGRDGTPGEKGEKGDAGLLGPKGETGDVGMTGAEGPRGFPGTPGRKGEPGEAAYVYRSAFSVGLETRVTVPNVPIRFTKIFYNQQNHYDGSTGKFYCNIPGLYYFSYHITVYMKDVKVSLFKKDKAVLFTYDQYQEKNVDQASGSVLLHLEVGDQVWLQVYGDGDHNGLYADNVNDSTFTGFLLYHDTN
# Legend:
# [1] = tested on: DSS/anti-CTLA4-induced colitis; test: DSS/anti-CTLA4-induced colitis model; type: in vivo, mice; details: AdipoRon vs vehicle; FIGS. S10a-S10d
# Experimental: For the induction of acute colitis, mice received 3% Dextran Sodium Sulfate (DSS colitis grade, 36-50 kDa; MP Biomedicals) in drinking water from day 0 to day 3, followed by normal drinking water. Mice were injected i.p. with 0.2 mg immune checkpoint inhibitor (ICI) or the respective isotype controls on days 0, 3 and 6 of the experiment. Recipients were transplanted i.v. with 107 ECP-treated donor splenocytes on days 3 and 6. In some experiments, steroid, adiponectin or AdipoRon were applied daily from days 3-7. Arginase-1 inhibitor was applied twice per day from days 4-7. STAT6 or PPARγ inhibitors were applied from day 4-7. Mice were injected with Clodrosomes on days 1, 3, 5 and 7. […]
# (§1) Colon, liver, skin and lung were harvested, formalin-fixed and paraffin embedded. Sections were stained with H&E and scored by an experienced pathologist, based on histopathological characterization of human irAEs, including lymphocyte and neutrophil infiltration, crypt abscesses, and apoptotic cells on a scale from 0 (absent) to 2 (massive). […]
# For quantification of adiponectin concentrations in murine serum specimen, blood was harvested by retroorbital bleeding and serum was isolated by centrifugation. Adiponectin concentrations were measured using Adiponectin Mouse ELISA Kit (ThermoFisher) at 20,000-fold dilution.
# [2] = tested on: F4/80^+ macrophages (BMDMs); test: Arg1 in BMDMs exposed to recombinant adiponectin or AdipoRon; type: cell-based, mouse; details: increasing concentrations, 48 h, vs vehicle
# Experimental: BMDMs were generated from bone marrow after erythrocyte lysis. Cells were cultured in RPMI supplemented with 10% FCS, 1% P/S and 20 ng/mL rmM-CSF (Peprotech). Culture medium was replaced on days 5 and 6. Cells were used on day 7 with a purity >95%, confirmed by surface CD11b and F4/80 expression. BMDMs (M0) were polarized for 16 h into M1 with 50 ng/mL rmIFNγ (Peprotech) and 20 ng/mL LPS (Sigma), or into M2 with 20 ng/mL rmIL-4 (Peprotech). If indicated, BMDMs were treated with increasing concentrations of recombinant adiponectin/Acrp30 (GenScript) or AdipoRon (MedChemExpress) for 48 h.
# (§2) Spleens were isolated, meshed and erythrocytes were lysed. Single cell suspensions of tissues were prepared as described. Viability was analyzed by either Zombie NIR fixable dye (BioLegend) or LIVE/DEAD Fixable Aqua (Invitrogen) staining. Fc receptors were blocked with anti-mouse CD16/CD32 (BioLegend) for 10 min at 4° C., followed by surface staining with fluorochrome-conjugated antibodies for 30 min at 4° C. […] Antigen-specific CD8 T-cells were analyzed after H-2Kb/OVA^257-264 dextramer staining (Immudex). […] All data were acquired on a BD LSR Fortessa (BD Biosciences) and analyzed with FlowJo v10 (TreeStar). […] Data was acquired with a Canto II flow cytometer (BD Biosciences) and analyzed using FACSDiva Software V6 (BD Biosciences).
# [3] = tested on: DSS/anti-PD1-induced colitis; test: DSS/anti-PD1-induced colitis model; type: in vivo, mice; details: for ICI-induced colonic inflammation, combination with ECP: ECP plus agent vs ECP plus vehicle, FIGS. 4i-p; for severity of ICI-induced colitis (bodyweight, colon length, neutrophil and lymphocyte infiltration): monotherapy vs vehicle, daily days 3-7, FIGS. 4a-h
# Experimental: For modeling ECP transplantation in vivo, splenocytes of donor mice were used. Donor animals were treated identically to the respective recipient groups. Spleens were harvested, meshed and erythrocytes were lysed. Splenocytes were resuspended to 3-5×10^6 cells/mL in RPMI, supplemented with 10% FCS and 1% P/S, and treated with 200 ng/mL 8-methoxypsoralen (8-MOP; Uvadex©, Therakos) at 37° C. and 5% CO2 for 30 min. Following incubation, the cells were exposed to UVA light (2 J/cm2) in a calibrated BS-02 irradiation chamber, operated in dose-controlled mode (Opsytec Dr. Gröbel). ECP-treated splenocytes were resuspended in PBS and […] were injected intravenously into recipient mice. Where indicated, PBMCs were treated with ECP comparably to splenocytes and 107 PBMCs were injected intravenously into recipient mice. PBMCs from mouse EDTA-blood were isolated using Ficoll-Paque PREMIUM 1.084 (Cytiva). For ECP-treatment of epithelial cells, 6×10^6 MODE-K cells were seeded onto 10 cm dishes one day before ECP-treatment. The next day, cells were treated with 8-methoxypsoralen and UVA light in a calibrated BS-02 irradiation chamber. Cells were washed with PBS and 2×10^6 ECP-treated MODE-K cells were injected intravenously into recipient mice.
# For the induction of acute colitis, mice received 3% Dextran Sodium Sulfate (DSS colitis grade, 36-50 kDa; MP Biomedicals) in drinking water from day 0 to day 3, followed by normal drinking water. Mice were injected i.p. with 0.2 mg immune checkpoint inhibitor (ICI) or the respective isotype controls on days 0, 3 and 6 of the experiment. Recipients were transplanted i.v. with 107 ECP-treated donor splenocytes on days 3 and 6. In some experiments, steroid, adiponectin or AdipoRon were applied daily from days 3-7. Arginase-1 inhibitor was applied twice per day from days 4-7. STAT6 or PPARγ inhibitors were applied from day 4-7. Mice were injected with Clodrosomes on days 1, 3, 5 and 7. If not indicated differently, mice were sacrificed in day 8 by retroorbital bleeding to harvest serum and organs which were harvested for histopathological scoring and gene expression analysis.
# ICI treatment consisted of either 0.2 mg anti-PD1 (mouse, clone RMP1-14; Ichorbio) or 0.2 mg anti-CTLA4 (mouse, clone 9D9; Ichorbio) per injection intraperitoneally. Controls were Rat IgG2a Isotype Control (clone 1-1, Ichorbio) and Mouse IgG2b Isotype Control (clone MPC-11, Ichorbio), respectively. […]
# as §1
# [4] = tested on: ICI-colitis; details: cited from earlier work; for ORR (clinical remission) / response rate: retrospective observational cohort, best response at any time point
# [5] = tested on: ICI-hepatitis; details: cited from earlier work; for Response / Steroid reduction: case reports
# [6] = tested on: pan T-cells; test: T-cell activation with anti-CD3/CD28 beads in the presence of adiponectin; type: cell-based, mouse; details: 72 h, vs vehicle
# Experimental: (§3) Splenic T-cells were isolated from C57BL/6 donors using Pan T-cell isolation kit II (Miltenyi) and activated using anti-CD3/CD28 beads (ThermoScientific) in the presence of 30 U/mL rmIL2 (Peprotech). T-cells were treated with 9 μg/mL recombinant murine adiponectin (GenScript) or vehicle for 72 h. C57BL/6 recipients received 1% DSS (MP Biomedicals) in drinking water from day 0 to day 3, followed by normal drinking water to induce mild colitis. Mice were injected i.p. with 0.2 mg anti-PD1 on day 0, day 3 and day 6 of the experiment. On day 4, activation beads were removed, T-cells were washed and 5×106 T-cells were intravenously injected into colitis animals. Colitis tissue was harvested on day 8. T-cells were stained for CD25 surface expression to determine activation.
# as §2, with “staining.” for “staining. Fc receptors were blocked with anti-mouse CD16/CD32 (BioLegend) for 10 min at 4° C., followed by surface staining with fluorochrome-conjugated antibodies for 30 min at 4° C.”
# [7] = tested on: DSS/anti-PD1-induced colitis; test: Adoptive transfer of adiponectin-treated T-cells into colitis mice; type: in vivo; details: adiponectin-treated vs vehicle-treated T-cells
# Experimental: as §3
# Colon, liver, skin and lung were harvested, formalin-fixed and paraffin embedded. Sections were stained with H&E and scored by an experienced pathologist, based on histopathological characterization of human irAEs, including lymphocyte and neutrophil infiltration, crypt abscesses, and apoptotic cells on a scale from 0 (absent) to 2 (massive). Scoring was done blinded to the experimental group.
# [8] = retrospective analysis of 8 patients
# [9] = retrospective analysis of 13 patients
molecule,measurement,setting,value
O=C(COc1ccc(C(=O)c2ccccc2)cc1)NC1CCN(Cc2ccccc2)CC1 [AdipoRon],DSS/anti-CTLA4-induced colitis / intestinal inflammation,[1],reduced anti-CTLA-4-induced colitis; also recorded: also in DSS/anti-CTLA4-induced intestinal inflammation
same,Arg1 (MFI) in BMDMs,[2],upregulation of immunosuppressive Arg1
same,"ICI-induced colonic inflammation, combination with ECP",[3],synergized with ECP to reduce ICI-induced colonic inflammation
same,"severity of ICI-induced colitis (bodyweight, colon length, neutrophil and lymphocyte infiltration)",[3],effective in anti-PD1-mediated colitis
Vedolizumab: treatment for ICI-colitis in cited studies,endoscopic remission rate,"[4]; retrospective case series, 28 patients refractory to steroids and/or infliximab",29%
same,ORR (clinical remission) / response rate,[4],89%
same,ORR (clinical remission) / response rate,[4]; listed as vedolizumab,89%
Infliximab: TNF antagonist,CR rate,[4]; [8],38%
same,ORR,[4]; [8],50%
same,CR,[4]; [9],31%
same,ORR,[4]; [9],45%
same,ORR (clinical remission) / response rate,[4],88%
same,Response,[5],"Partial response, reduction of ALT"
same,Steroid reduction,[5],"Tapering to 30%, off steroid at 14"
Tocilizumab: interleukin-6 blockade by tocilizumab,"Adverse events, any grade","[4]; human, in vivo",80%
same,"Adverse events, grade 3-4","[4]; human, in vivo",25%
same,patients with reduction in symptoms,"[4]; prospective trial, best response during 8 weeks",8 of 10
same,ORR,"[4]; prospective, 10 patients, colitis improvement (≥1 grade reduction) within 8 weeks",80%
same,CR,"[4]; prospective, 10 patients",0%
COc1c(C)c2c(c(O)c1C/C=C(\C)CCC(=O)OCCN1CCOCC1)C(=O)OC2 [Mycophenolate mofetil],Response,[5],Improved liver injury within 13; also recorded: Discharge of MMF after 68 days; also recorded: Liver function normalized within 3
same,Steroid reduction,[5],Tapered from 60 to 10 mg/d; also recorded: Tapered from 500 to 10 mg/d; also recorded: Discontinuation after 1 year
same,ORR,"[5]; retrospective, 8 patients, liver function tests to grade 1 or less",50%
same,Adverse events,"[5]; retrospective, 8 patients",25%
C=CC[C@@H]1/C=C(\C)C[C@H](C)C[C@H](OC)[C@H]2O[C@@](O)(C(=O)C(=O)N3CCCC[C@H]3C(=O)O[C@H](/C(C)=C/[C@@H]3CC[C@@H](O)[C@H](OC)C3)[C@H](C)[C@@H](O)CC1=O)[C@H](C)C[C@@H]2OC [Tacrolimus],Response,[5],Decreasing ALT levels within 2-5
same,Steroid reduction,[5],Cessation at 12 months; also recorded: Cessation of prednisolone over 6
B1,CD25 expression on CD4^+ and CD8^+ T-cells,[6]; 9 μg/mL,reduced the expression of CD25
same,FoxP3 expression and CD4^+/CD8^+ T-cell frequencies,[6],no effect on FoxP3 expression and CD4^+/CD8^+ T-cell frequencies
same,Arg1 (MFI) in BMDMs,[2],upregulation of immunosuppressive Arg1
same,colitis severity in recipients of treated T-cells,[7],Colitis severity was lower
same,"ICI-induced colonic inflammation, combination with ECP",[3],synergized with ECP to reduce ICI-induced colonic inflammation
same,"severity of ICI-induced colitis (bodyweight, colon length, neutrophil and lymphocyte infiltration)",[3],reduce the severity of colitis

# — patent US20240307497A1, “ADIPONECTIN ALONE OR IN COMBINATION WITH EXTRACORPOREAL PHOTOPHERESIS (ECP) FOR IMMUNE RELATED ADVERSE EVENTS OF IMMUNE CHECKPOINT INHIBITORS” (Mallinckrodt Pharmaceuticals Ireland Limited, priority 2022, published 2024)
